Patent publication US10125118B2, “Heteroaryl compounds and their use as therapeutic drugs” (Dong-A Socio Holdings Co., Ltd., priority 2015, dated 2018)

Each molecule was assayed against human c-MER catalytic domain (Homo sapiens (Human), UniProt Q12866) (assay: LanthaScreen TR-FRET kinase assay, c-MER). Conditions: read-out: Mer TK inhibition (IC50); Biochemical IC50, TR-FRET, 10 uM ATP.
human c-MER catalytic domain, sequence (Q12866 587-858): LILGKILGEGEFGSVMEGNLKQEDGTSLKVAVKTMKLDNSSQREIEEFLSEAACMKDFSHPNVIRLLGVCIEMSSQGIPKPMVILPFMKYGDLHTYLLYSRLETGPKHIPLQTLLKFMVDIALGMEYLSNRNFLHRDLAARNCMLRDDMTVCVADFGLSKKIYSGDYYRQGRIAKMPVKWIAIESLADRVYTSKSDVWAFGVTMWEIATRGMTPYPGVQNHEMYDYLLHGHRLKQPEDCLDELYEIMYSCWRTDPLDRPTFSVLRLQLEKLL

Structure (SMILES) | IC50 [nM]
Cn1cc(-c2cnc(N)c(C(=O)N[C@H]3CCC[C@@H]3OCc3cc(F)c(F)cc3F)c2)cn1 (relative stereo) [Example 50, 2-amino-5-(1-methyl-1H-pyrazol-4-yl)-N-(trans-2-((2,4,5-trifluorobenzyl)oxy)cyclopentyl)nicotinamide] | > 1000
Cn1cc(-c2cnc(N)c(C(=O)N[C@H]3CCC[C@@H]3OCc3ccccc3-c3ccccc3)c2)cn1 (relative stereo) [Example 66, N-(trans-2-([1,1′-biphenyl]-2-ylmethoxy)cyclopentyl)-2-amino-5-(1-methyl-1H-pyrazol-4-yl)nicotinamide] | > 1000
Cn1cc(-c2cnc(N)c(C(=O)N[C@H]3CCC[C@H]3O)c2)cn1 (relative stereo) [Example 70, 2-amino-N-(cis-2-hydroxycyclopentyl)-5-(1-methyl-1H-pyrazol-4-yl)nicotinamide] | > 1000
CN(Cc1ccccc1)[C@H]1CCC[C@@H]1NC(=O)c1cc(-c2cnn(C)c2)cnc1N (relative stereo) [Example 76, 2-amino-N-(trans-2-(benzyl(methyl)amino)cyclopentyl)-5-(1-methyl-1H-pyrazol-4-yl)nicotinamide] | > 1000
Cn1cc(-c2cnc(N)c(C(=O)N[C@@H]3[C@@H](COc4ccccc4)CCC3(F)F)c2)cn1 (relative stereo) [Example 79, 2-amino-N-(trans-2,2-difluoro-5-(phenoxymethyl)cyclopentyl)-5-(1-methyl-1H-pyrazol-4-yl)nicotinamide] | > 1000
Cn1cc(-c2cnc(N)c(C(=O)N[C@H]3COC[C@@H]3N3CCOCC3)c2)cn1 (relative stereo) [Example 90, 2-amino-5-(1-methyl-1H-pyrazol-4-yl)-N-(trans-4-morpholinotetrahydrofuran-3-yl)nicotinamide] | > 1000
Cn1cc(-c2cnc(N)c(C(=O)N[C@H]3COC[C@@H]3N3CCCC3)c2)cn1 (relative stereo) [Example 91, 2-amino-5-(1-methyl-1H-pyrazol-4-yl)-N-(trans-4-(pyrrolidin-1-yl)tetrahydrofuran-3-yl)nicotinamide] | > 1000
Cn1cc(-c2cnc(N)c(C(=O)N[C@H]3COC[C@H]3O)c2)cn1 (relative stereo) [Example 92, 2-amino-N-(cis-4-hydroxytetrahydrofuran-3-yl)-5-(1-methyl-1H-pyrazol-4-yl)nicotinamide] | > 1000
CC(C)N1C[C@H](NC(=O)c2cc(-c3cnn(C)c3)cnc2N)[C@@H](OCc2ccccc2)C1 (relative stereo) [Example 94, 2-amino-N-(trans-4-(benzyloxy)-1-isopropylpyrrolidin-3-yl)-5-(1-methyl-1H-pyrazol-4-yl)nicotinamide] | > 1000
Cn1cc(-c2cnc(N)c(C(=O)N[C@H]3CCC[C@@H]3OCc3cccc([N+](=O)[O-])c3)c2)cn1 [Example 30, 2-amino-5-(1-methyl-1H-pyrazol-4-yl)-N-((1S,2S)-2-((3-nitrobenzyl)oxy)cyclopentyl)nicotinamide] | > 1000
Cn1cc(-c2cnc(N)c(C(=O)N[C@H]3CCC[C@@H]3OCc3cccc(C#N)c3)c2)cn1 [Example 31, 2-amino-N-((1S,2S)-2-((3-cyanobenzyl)oxy)cyclopentyl)-5-(1-methyl-1H-pyrazol-4-yl)nicotinamide] | > 1000
Cn1cc(-c2cnc(N)c(C(=O)N[C@H]3CCC[C@@H]3OCc3cccc(O)c3)c2)cn1 [Example 32, 2-amino-N-((1S,2S)-2-((3-hydroxybenzyl)oxy)cyclopentyl)-5-(1-methyl-1H-pyrazol-4-yl)nicotinamide] | > 1000
COc1ccc(CO[C@H]2CCC[C@@H]2NC(=O)c2cc(-c3cnn(C)c3)cnc2N)cc1 [Example 35, 2-amino-N-((1S,2S)-2-((4-methoxybenzyl)oxy)cyclopentyl)-5-(1-methyl-1H-pyrazol-4-yl)nicotinamide] | > 1000
COc1ccc(CO[C@@H]2CCC[C@H]2NC(=O)c2cc(-c3cnn(C)c3)cnc2N)cc1 [Example 36, 2-amino-N-((1R,2R)-2-((4-methoxybenzyl)oxy)cyclopentyl)-5-(1-methyl-1H-pyrazol-4-yl)nicotinamide] | > 1000
COC(=O)c1cccc(CO[C@H]2CCC[C@@H]2NC(=O)c2cc(-c3cnn(C)c3)cnc2N)c1 [Example 42, methyl 3-((((1S,2S)-2-(2-amino-5-(1-methyl-1H-pyrazol-4-yl)nicotinamido)cyclopentyl)oxy)methyl)benzoate] | > 1000
Cn1cc(-c2cnc(N)c(C(=O)N[C@H]3CCC[C@@H]3OCc3cccc(Br)c3)c2)cn1 [Example 51, 2-amino-N-((1S,2S)-2-((3-bromobenzyl)oxy)cyclopentyl)-5-(1-methyl-1H-pyrazol-4-yl)nicotinamide] | > 1000
COC(=O)CNC(=O)c1cccc(CO[C@H]2CCC[C@@H]2NC(=O)c2cc(-c3cnn(C)c3)cnc2N)c1 [Example 55, methyl (3-((((1S,2S)-2-(2-amino-5-(1-methyl-1H-pyrazol-4-yl)nicotinamido)cyclopentyl)oxy)methyl)benzoyl)glycinate] | > 1000
Cn1cc(-c2cnc(N)c(C(=O)N[C@H]3CCC[C@@H]3OCc3cccc(C(=O)NCCO)c3)c2)cn1 [Example 56, 2-amino-N-((1S,2S)-2-((3-((2-hydroxyethyl)carbamoyl)benzyl)-oxy)cyclopentyl)-5-(1-methyl-1H-pyrazol-4-yl)nicotinamide] | > 1000
Cn1cc(-c2cnc(N)c(C(=O)N[C@H]3CCC[C@@H]3OCc3cccc(NC(=O)C4CCNCC4)c3)c2)cn1 [Example 57, 2-amino-5-(1-methyl-1H-pyrazol-4-yl)-N-((1S,2S)-2-((3-(piperidine-4-carboxamido)benzyl)oxy)cyclopentyl)nicotinamide] | > 1000
C[C@H](N)C(=O)Nc1cccc(CO[C@H]2CCC[C@@H]2NC(=O)c2cc(-c3cnn(C)c3)cnc2N)c1 [Example 58, 2-amino-N-((1S,2S)-2-((3-((S)-2-aminopropanamido)benzyl)oxy)-cyclopentyl)-5-(1-methyl-1H-pyrazol-4-yl)nicotinamide] | > 1000
CC(=O)N[C@@H](C)C(=O)Nc1cccc(CO[C@H]2CCC[C@@H]2NC(=O)c2cc(-c3cnn(C)c3)cnc2N)c1 [Example 59, N-((1S,2S)-2-((3-((S)-2-acetamidopropanamido)benzyl)oxy)-cyclopentyl)-2-amino-5-(1-methyl-1H-pyrazol-4-yl)nicotinamide] | > 1000
Cn1cc(-c2cnc(N)c(C(=O)N[C@H]3CCC[C@@H]3OCc3ccc(-n4nccn4)cc3)c2)cn1 [Example 62, N-((1S,2S)-2-((4-(2H-1,2,3-triazol-2-yl)benzyl)oxy)cyclopentyl)-2-amino-5-(1-methyl-1H-pyrazol-4-yl)nicotinamide] | > 1000
Cn1cc(-c2cnc(N)c(C(=O)N[C@H]3CCC[C@@H]3O)c2)cn1 [Example 69, 2-amino-N-((1S,2S)-2-hydroxycyclopentyl)-5-(1-methyl-1H-pyrazol-4-yl)nicotinamide] | > 1000
CCNc1ncc(-c2cnn(C)c2)cc1C(=O)N[C@H]1CCC[C@@H]1OCc1ccccc1 [Example 71, N-((1S,2S)-2-(benzyloxy)cyclopentyl)-2-(ethylamino)-5-(1-methyl-1H-pyrazol-4-yl)nicotinamide] | > 1000
